Assay results from patent US20250197374A1, “WEE1 DEGRADING COMPOUNDS AND USES THEREOF” (BRISTOL-MYERS SQUIBB COMPANY, priority 2023, published 2025).

Key:
Assay type in all cases: cell-based
WEE1 = biological target: T1, WEE1 (Homo sapiens, UniProt P30291+Q96SW2); assay: WEE1-ePL degradation assay (293T-LentiX, InCELL Hunter luminescence, 4 hr); conditions: for DC50: LentiX-HEK293T cells expressing WEE1-ePL, 4 hr incubation, read-out: 293T-LentiX WEE1-ePL Degradation 4 hr EC50; for 293T-LentiX WEE1-ePL Degradation 4 hr YMin (%): lower limit of fit, % of DMSO control signal remaining
T1 construct: C-terminal ePL-tagged (DiscoverX, Fremont, CA) full-length WEE1 expression construct; expressed in transfected cells; host or cells: LentiX-HEK293T (Invitrogen), lentivirally transduced; the cells also over-express GSPT1-GN
T1 sequence (P30291 whole entry): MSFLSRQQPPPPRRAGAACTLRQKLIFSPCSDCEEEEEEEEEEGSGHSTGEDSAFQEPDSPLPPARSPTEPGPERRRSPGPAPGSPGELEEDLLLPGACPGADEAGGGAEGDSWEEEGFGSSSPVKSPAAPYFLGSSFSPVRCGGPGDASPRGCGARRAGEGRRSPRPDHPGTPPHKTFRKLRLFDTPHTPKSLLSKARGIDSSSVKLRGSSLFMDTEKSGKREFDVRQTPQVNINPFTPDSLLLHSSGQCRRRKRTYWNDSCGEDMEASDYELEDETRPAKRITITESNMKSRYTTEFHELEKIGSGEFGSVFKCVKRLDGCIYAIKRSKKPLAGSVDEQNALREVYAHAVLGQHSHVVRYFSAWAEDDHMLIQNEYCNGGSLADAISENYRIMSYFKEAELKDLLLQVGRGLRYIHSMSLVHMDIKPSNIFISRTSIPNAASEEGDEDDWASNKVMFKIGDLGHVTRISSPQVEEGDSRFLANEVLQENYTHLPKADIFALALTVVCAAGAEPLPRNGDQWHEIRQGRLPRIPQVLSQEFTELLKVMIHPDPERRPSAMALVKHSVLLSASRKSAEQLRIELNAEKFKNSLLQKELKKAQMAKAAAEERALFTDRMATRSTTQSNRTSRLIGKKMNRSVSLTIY
T1 sequence (Q96SW2 whole entry): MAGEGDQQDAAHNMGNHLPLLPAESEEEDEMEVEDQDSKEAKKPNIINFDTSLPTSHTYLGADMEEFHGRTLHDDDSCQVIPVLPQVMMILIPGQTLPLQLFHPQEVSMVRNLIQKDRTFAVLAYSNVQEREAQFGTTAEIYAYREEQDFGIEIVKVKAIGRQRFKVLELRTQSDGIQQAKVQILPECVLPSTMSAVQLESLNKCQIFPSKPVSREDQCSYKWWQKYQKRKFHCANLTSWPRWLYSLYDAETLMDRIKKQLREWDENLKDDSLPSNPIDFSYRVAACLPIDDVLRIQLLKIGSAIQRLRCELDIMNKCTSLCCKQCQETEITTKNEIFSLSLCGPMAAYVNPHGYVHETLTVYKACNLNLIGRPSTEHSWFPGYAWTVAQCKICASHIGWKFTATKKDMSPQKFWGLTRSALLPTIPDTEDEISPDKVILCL
T1 sequence (Q16531 whole entry partner): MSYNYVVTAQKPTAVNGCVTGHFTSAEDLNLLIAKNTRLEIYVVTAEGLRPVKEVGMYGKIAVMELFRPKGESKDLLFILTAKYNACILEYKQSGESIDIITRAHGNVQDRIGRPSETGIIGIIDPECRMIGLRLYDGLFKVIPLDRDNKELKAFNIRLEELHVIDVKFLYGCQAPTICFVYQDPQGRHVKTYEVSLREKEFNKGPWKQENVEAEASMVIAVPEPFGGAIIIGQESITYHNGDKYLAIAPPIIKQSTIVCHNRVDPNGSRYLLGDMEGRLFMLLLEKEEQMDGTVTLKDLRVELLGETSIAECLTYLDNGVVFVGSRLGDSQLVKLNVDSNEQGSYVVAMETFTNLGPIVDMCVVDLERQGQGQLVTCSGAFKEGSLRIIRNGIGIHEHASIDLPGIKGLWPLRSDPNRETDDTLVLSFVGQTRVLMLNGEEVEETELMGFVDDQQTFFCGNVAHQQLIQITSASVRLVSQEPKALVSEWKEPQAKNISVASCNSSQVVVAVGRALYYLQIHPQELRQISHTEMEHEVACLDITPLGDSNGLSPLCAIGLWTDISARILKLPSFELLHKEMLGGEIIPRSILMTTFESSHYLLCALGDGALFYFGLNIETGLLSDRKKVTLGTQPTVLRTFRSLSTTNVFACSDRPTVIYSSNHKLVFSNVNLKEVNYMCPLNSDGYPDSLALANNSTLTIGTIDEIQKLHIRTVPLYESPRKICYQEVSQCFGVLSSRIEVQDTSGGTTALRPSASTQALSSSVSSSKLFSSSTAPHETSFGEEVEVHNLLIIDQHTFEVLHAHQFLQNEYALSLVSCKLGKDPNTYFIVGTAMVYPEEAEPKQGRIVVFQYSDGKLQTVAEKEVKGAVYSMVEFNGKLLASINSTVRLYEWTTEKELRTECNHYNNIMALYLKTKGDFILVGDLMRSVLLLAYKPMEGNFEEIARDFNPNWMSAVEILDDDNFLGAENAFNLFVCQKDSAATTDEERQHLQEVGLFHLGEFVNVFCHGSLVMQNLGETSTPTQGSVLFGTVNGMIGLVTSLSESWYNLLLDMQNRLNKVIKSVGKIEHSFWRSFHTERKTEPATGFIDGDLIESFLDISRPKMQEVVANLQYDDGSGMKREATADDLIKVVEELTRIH
Excerpt: To generate LentiX-WEE1-ePL-GSPT1-ND cells for the WEE1 degradation assay, LentiX-HEK293T (Invitrogen) were tranduced by lentivirus with a C-terminal ePL-tagged (DiscoverX, Fremont, CA) full-length WEE1 expression construct. A separate lentiviral construct was introduced to over-express a mutated form of GSPT1 (NP_002085), termed GSPT1-GN, which contains a G575N mutation and is further truncated in the first 158 amino acids. GSPT1-GN is functional but not degradable by Cereblon. Cells were selected and maintained in complete DMEM media (DMEM, 10% Heat Inactivated FBS, 400 μg/mL Geneticin, and 1 μg/mL puromycin at 37 C and 5% CO2). Cells were passaged every 3-4 days by reseeding 1×10^6 cells in a T150 flask.
Cells were dispensed into 384-well white plates (Corning #3570, NY) that were pre-spotted with compounds using an acoustic dispenser (Echo acoustic transfer system, Beckman Coulter Life Sciences, Carlsbad, CA) as a 10-point dose-response curve with a 3-fold dilution starting at either 1 uM or 10 uM and including a DMSO control. Twenty-five microliters of media containing 2500 cells for LentiX-oeWEE1-ePL was dispensed per well. Assay plates were incubated at 37° C. with 5% CO2 for four hours (WEE1) After incubation, 25 μL of the InCELL Hunter™ Detection Reagent Working Solution (DiscoverX, Fremont, CA) was added to each well and incubated at room temperature for 30 minutes protected from light. After 30 minutes, luminescence was read on a PHERAstar luminometer (Cary, NC).
To determine the half-maximal effective concentration (EC50) values for WEE1-ePL degradation, a four parameter logistic model was used: (Sigmoidal Dose-Response Model) (FIT=(A+((B−A)/1+((C/x)^D)))) where C is the inflection point (EC50), D is the Hill slope, and A and B are the low and high limits of the fit respectively). The lower limit of the fit (value A) is referred to as Ymin. […] The maximum limit constraint, Ymax, is similarly derived using DMSO control. The curves were processed and evaluated using Activity Base (IDBS, Alameda, CA) or using Dotmatics (Boston, MA).

MKN45 cells = assay: MKN45 cell proliferation assay (Cell-Titer-Glo, 120 hr); conditions: for EC50: Homo sapiens, MKN-45, 120 h, read-out: MKN45 Cell Prolif. 120 hr EC50; for MKN45 Cell Prolif. 120 hr YMin (%): minimal percent of DMSO control observed
Excerpt: (§1) MKN45 cells were obtained from Celgene internal cell banks and cultured in RPMI complete media (RPMI-1640, 1× Penicillin/Streptomycin, 1× glutamine, 1× Sodium Pyruvate, Non-essential Amino Acids, 10% Fetal Bovine serum, all component from Thermo-Fisher). MDA-MB-231 cells were obtained from the ATCC (HTB-26) and cultured in RPMI-1640 and 10% Fetal Bovine serum; MDA-MB-231 cells were expanded and stored as aliquots in liquid nitrogen in Celgene internal cell banks. Compounds were dispensed into 384-well plates using an HP DE300 compound printer in triplicate with 8 compounds on each plate. Compounds were dispensed into 384-well black clear bottom plates (Corning #3764BC) using an EDC acoustic dispenser at BMS. For each compound, a 10-point dose response was printed at half-log dilutions starting at either 1 uM or 10 uM in triplicate for MKN45 cells and in duplicate for MDA-MB-231 cells. The DMSO concentration was kept constant for a final assay concentration of 0.1% per well assuming 50 ul final media volume. Compound plates were sealed and frozen at −20 C until use.
(§2) For each assay batch, compound plates were thawed and allowed to reach room temperature, and cells were seeded at 400 MKN45 cells per well, or 800 MDA-MB-231 cells per well, in 50 ul media listed above for each cell line. After 120 hours of incubation at 37 C and 5% CO2, cells were lysed by addition of 25 μL of Cell-Titer-Glo Reagent (Promega Corporation, Madison, WI), as per manufacturer's instructions, protected from light, shaken for 45 minutes, and total luminescence read by a Perkin Elmer Envision plate reader. Total luminescence signal is linearly correlated with cell number remaining in the well.
(§3) Luminescence data was processed per plate by subtracting reagent-only “blank” well luminescence from all measured values and calculating a percent of DMSO control value for each treatment well. Then, to determine the half-maximal effective concentration (EC50) values for cell growth inhibition, a four parameter logistic model was fit to the data for each DMSO-normalized compound: Sigmoidal Dose-Response Model: (FIT=(A+((B−A)/1+((C/x)^D)))) where C is the inflection point ([…]), D is the Hill slope, and A and B are the low and high limits of the fit respectively. The lower limit of the fit (value A) is referred to as Ymin-calculated. The minimal percent of DMSO control that is observed in the concentrations tested for each compound is labeled as “Ymin-obs”, and was recorded and reported in the tables. Sigmoidal fit curves were processed and evaluated using Activity Base (IDBS, Alameda, CA) or using Dotmatics (Boston, MA). N/A=not available at the present time.

MDA-MB-231 cells = assay: MDA-MB-231 cell proliferation assay (Cell-Titer-Glo, 120 hr); conditions: for EC50: Homo sapiens, MDA-MB-231, 120 h, read-out: MDA-MB 231 Cell Prolif. 120 hr EC50; for MDA-MB 231 Cell Prolif. 120 hr YMin (%): minimal percent of DMSO control observed
Excerpt: as §1, §2, §3

DC50 (WEE1) | 293T-LentiX WEE1-ePL Degradation 4 hr YMin (%) (WEE1) | EC50 (MKN45 cells) | EC50 (MDA-MB-231 cells) | Compound | MKN45 Cell Prolif. 120 hr YMin (%) (MKN45 cells) | MDA-MB 231 Cell Prolif. 120 hr YMin (%) (MDA-MB-231 cells)
3 nM | 19.8% | 7 nM | 17 nM | COC[C@@H]1CN(Cc2cc(F)c3nc(C4CCC(O)CC4)ncc3c2)C[C@H]1Oc1ccc2c(c1)CN([C@H]1CCC(=O)NC1=O)C2=O (relative stereo) [Example 50, rel-(S)-3-(5-(((3S,4S)-1-((8-fluoro-2-(4-hydroxycyclohexyl)quinazolin-6-yl)methyl)-4-(methoxymethyl)pyrrolidin-3-yl)oxy)-1-oxoisoindolin-2-yl)piperidine-2,6-dione] | 8.7% | 19.3%
1 nM | 29.0% | 1 nM | 15 nM | COC[C@@H]1CN(Cc2cc3ccc(C4CCC(O)CC4)cc3cn2)C[C@H]1Oc1ccc2c(c1)CN([C@H]1CCC(=O)NC1=O)C2=O (relative stereo) [Example 51, rel-(S)-3-(5-(((3S,4S)-1-((7-(4-hydroxycyclohexyl)isoquinolin-3-yl)methyl)-4-(methoxymethyl)pyrrolidin-3-yl)oxy)-1-oxoisoindolin-2-yl)piperidine-2,6-dione] | 9.9% | 24.8%
1 nM | 27.2% | 1 nM | 12 nM | COC[C@@H]1CN(Cc2cc(F)c3nc(C4CC(C)OC(C)C4)ccc3c2)C[C@H]1Oc1ccc2c(c1)CN([C@H]1CCC(=O)NC1=O)C2=O (relative stereo) [Example 52, re1-(3S)-3-(5-{[(3S,4S)-1-{[2-(2,6-dimethyloxan-4-yl)-8-fluoroquinolin-6-yl]methyl}-4-(methoxymethyl)pyrrolidin-3-yl]oxy}-1-oxo-2,3-dihydro-1H-isoindol-2-yl)piperidine-2,6-dione] | 8.3% | 16.7%
 | 31.2% |  | 9 nM | COC[C@@H]1CN(Cc2cc(F)c3nc(C4CCC(O)CC4)ccc3c2)C[C@H]1Oc1ccc2c(c1)CN([C@H]1CCC(=O)NC1=O)C2=O (relative stereo) [Example 54, rel-(S)-3-(5-(((3S,4S)-1-((8-fluoro-2-(4-hydroxycyclohexyl)quinolin-6-yl)methyl)-4-(methoxymethyl)pyrrolidin-3-yl)oxy)-1-oxoisoindolin-2-yl)piperidine-2,6-dione] | 10.5% | 48.9%
 | 30.3% |  | 11 nM | COC[C@@H]1CN(Cc2cc(F)c3nc(C4CCC(C(C)(C)O)CC4)ccc3c2)C[C@H]1Oc1ccc2c(c1)CN([C@H]1CCC(=O)NC1=O)C2=O (relative stereo) [Example 57, rel-(S)-3-(5-(((3S,4S)-1-((8-fluoro-2-(4-(2-hydroxypropan-2-yl)cyclohexyl)quinolin-6-yl)methyl)-4-(methoxymethyl)pyrrolidin-3-yl)oxy)-1-oxoisoindolin-2-yl)piperidine-2,6-dione] | 8.0% | 13.2%
1 nM | 27.3% | 2 nM |  | COC[C@@H]1CN(Cc2cc(F)c3nc(C4CCCO4)ccc3c2)C[C@H]1Oc1ccc2c(c1)CN(C1CCC(=O)NC1=O)C2=O (relative stereo) [Example 65, rel-(3S)-3-(5-(((3S,4S)-1-((8-fluoro-2-(tetrahydrofuran-2-yl)quinolin-6-yl)methyl)-4-(methoxymethyl)pyrrolidin-3-yl)oxy)-1-oxoisoindolin-2-yl)piperidine-2,6-dione] | 8.1% | 94.2%
3 nM | 32.7% | 5 nM | 107 nM | COC[C@@H]1CN(Cc2cc(F)c3nc(C4CCCN4C)ccc3c2)C[C@H]1Oc1ccc2c(c1)CN([C@H]1CCC(=O)NC1=O)C2=O (relative stereo) [Example 66, rel-(3S)-3-(5-(((3S,4S)-1-((8-fluoro-2-(1-methylpyrrolidin-2-yl)quinolin-6-yl)methyl)-4-(methoxymethyl)pyrrolidin-3-yl)oxy)-1-oxoisoindolin-2-yl)piperidine-2,6-dione] | 13.9% | 57.1%
1 nM | 29.6% | 1 nM | 28 nM | COC[C@@H]1CN(Cc2cc(F)c3nc(C4CCN(C(C)=O)C4)ccc3c2)C[C@H]1Oc1ccc2c(c1)CN([C@H]1CCC(=O)NC1=O)C2=O (relative stereo) [Example 67, rel-(3S)-3-(5-(((3S,4S)-1-((2-(1-acetylpyrrolidin-3-yl)-8-fluoroquinolin-6-yl)methyl)-4-(methoxymethyl)pyrrolidin-3-yl)oxy)-1-oxoisoindolin-2-yl)piperidine-2,6-dione] | 12.3% | 37.7%
2 nM | 26.4% | 1 nM | 14 nM | COC[C@@H]1CN(Cc2cc(F)c3nc(C4CCN(CC(F)(F)F)C4)ccc3c2)C[C@H]1Oc1ccc2c(c1)CN([C@H]1CCC(=O)NC1=O)C2=O (relative stereo) [Example 68, rel-(3S)-3-(5-(((3S,4S)-1-((8-fluoro-2-(1-(2,2,2-trifluoroethyl)pyrrolidin-3-yl)quinolin-6-yl)methyl)-4-(methoxymethyl)pyrrolidin-3-yl)oxy)-1-oxoisoindolin-2-yl)piperidine-2,6-dione] | 8.9% | 17.4%
 | 27.7% | 1 nM | 9 nM | COC[C@@H]1CN(Cc2cc(F)c3nc(C4CCCCO4)ccc3c2)C[C@H]1Oc1ccc2c(c1)CN([C@H]1CCC(=O)NC1=O)C2=O (relative stereo) [Example 69, rel-(3S)-3-(5-{[(3S,4S)-1-{[8-fluoro-2-(oxan-2-yl)quinolin-6-yl]methyl}-4-(methoxymethyl)pyrrolidin-3-yl]oxy}-1-oxo-2,3-dihydro-1H-isoindol-2-yl)piperidine-2,6-dione] | 8.6% | 20.5%
